system: ventricular strips; experiment: Cardiac stimulant activity in vitro: force of contraction of electrically stimulated guinea pig right ventricular strips; settings: Cavia porcellus; 50% increase in force of contraction; 0.5 Hz stimulation, Krebs Henseleit solution, 37° C.
Description: The compounds of formula (I) and their pharmaceutically acceptable salts are tested for cardiac stimulant activity following a procedure based on that of S. […]. Pharm & Exp. Therapeutics, 200, 352-362 (1977)). Guinea pigs (500-700 g) of either sex are sacrificed and the hearts are quickly removed and transferred to a dissecting dish containing oxygenated bathing fluid. While in the bathing medium, the right ventricle is cut into two strips. The strips are each suspended in a 75 ml bath containing Krebs Henseleit solution at 37° C. and the bath is bubbled with 95% oxygen and 5% carbon dioxide. The ventricular strips are electrically stimulated at a frequency of 0.5 Hz, at double the threshold voltage. A resting tension of 1.0 g is applied to the strips and the tension is kept constant by readjustment during an equilibration period of 60 minutes. The bathing fluid is frequently changed during this period. When a steady base line is obtained, a compound under test is added to the bathing fluid and a cumulative concentration response curve is plotted. […] In the above test method the compounds of the Examples gave the following data : […]

Question: Which EC50 does the source give for Nc1ccc2c(c1)CC1CC(=O)NN=C21 (stereo not drawn) [Example 1, 7-Amino-4,4a-dihydro-[5H]-indeno[1,2-c]pyridazin-3[2H]-one] here?
Answer: Its EC50 is 14 µM.

Question: With CC12CC(=O)NN=C1c1ccc(C(N)=O)cc1C2 (stereo not drawn) [Example 3, 7-Carboxamido-4,4a-dihydro-4a-methyl-[5H]-indeno[1,2-C]-pyridazin-3[2H]-one] as the molecule, how does the EC50 read?
Answer: Its EC50 is 27 µM.

Question: Which EC50 does the source give for COc1ccc2c(c1)CC1(C)CC(=O)NN=C21 (stereo not drawn) [Example 7, 4,4a-Dihydro-7-methoxy-4a-methyl-[5H]-indeno[1,2-c]-pyridazin-3[2H]-one] here?
Answer: Its EC50 is 21 µM.

Question: Which EC50 does the source give for COc1ccc2c(c1)CCC1(C)CC(=O)NN=C21 (stereo not drawn) [Example 10, 8-Methoxy-4a-methyl-4,4a,5,6-tetrahydrobenzo[h]cinnolin-3[2H]-one] here?
Answer: The EC50 was 23 µM.

Question: With CN=C(NC#N)Nc1ccc2c(c1)CCC1CC(=O)NN=C21 (stereo not drawn) [Example 15, 8-(N^2 -Methyl-N^3-cyanoguanidino)-4,4a,5,6-tetrahydrobenzo-[h]cinnolin-3[2H]-one] as the molecule, how does the EC50 read?
Answer: The EC50 was 22 µM.

system: not given; experiment: not given; settings: Curran et al, J. Med. Chem. 1974, p 273; cited from earlier work

Question: Which hypotensive activity does the source give for COc1ccc2c(c1)CCC1CC(=O)NN=C21 (stereo not drawn) [8-Methoxy-4,4a,5,6-tetrahydrobenzo[h]cinnolin-3[2H]-one] here?
Answer: The hypotensive activity was “not showing any hypotensive activity”.

Question: For COc1ccc2c(c1)CCc1cc(=O)[nH]nc1-2 [dehydro analogue, 5,6-Dihydro-8-methoxybenzo[h]cinnolin-3[2H]-one], which hypotensive activity is on record?
Answer: The hypotensive activity was “not showing any hypotensive activity”.

system: left ventricular dp/dt max; experiment: Cardiac stimulant activity in vivo in anaesthetised cats (left ventricular dp/dt max, i.v.); parameters: species or system cat; key to Relative Duration: ***: Long; **: medium; *: short; settings: Felis catus, read-out: ED50 (dose to increase left ventricular dp/dt max by 50%); intravenous; anaesthetised cats pretreated with ganglion blocker (mecamylamine or pempidine) and propranolol

Question: With Nc1ccc2c(c1)CC1CC(=O)NN=C21 (stereo not drawn) [Example 1, 7-Amino-4,4a-dihydro-[5H]-indeno[1,2-c]pyridazin-3[2H]-one] as the molecule, how does the ED50 read?
Answer: The ED50 was 1.8 µmol/kg.

Question: For CC12CC(=O)NN=C1c1ccc(C(N)=O)cc1C2 (stereo not drawn) [Example 3, 7-Carboxamido-4,4a-dihydro-4a-methyl-[5H]-indeno[1,2-C]-pyridazin-3[2H]-one], which ED50 is on record?
Answer: Its ED50 is 0.4 µmol/kg.

Question: For COc1ccc2c(c1)CC1(C)CC(=O)NN=C21 (stereo not drawn) [Example 7, 4,4a-Dihydro-7-methoxy-4a-methyl-[5H]-indeno[1,2-c]-pyridazin-3[2H]-one], which ED50 is on record?
Answer: Its ED50 is 1.4 µmol/kg.

Question: Which ED50 does the source give for COc1ccc2c(c1)CCC1(C)CC(=O)NN=C21 (stereo not drawn) [Example 10, 8-Methoxy-4a-methyl-4,4a,5,6-tetrahydrobenzo[h]cinnolin-3[2H]-one] here?
Answer: The ED50 was 0.2 µmol/kg.

Question: Which ED50 does the source give for CN=C(NC#N)Nc1ccc2c(c1)CCC1CC(=O)NN=C21 (stereo not drawn) [Example 15, 8-(N^2 -Methyl-N^3-cyanoguanidino)-4,4a,5,6-tetrahydrobenzo-[h]cinnolin-3[2H]-one] here?
Answer: The ED50 was 1.2 µmol/kg.

Question: With NC(=O)c1ccc2c(c1)CCC1CC(=O)NN=C21 (stereo not drawn) [Example 17, 8-Carboxamido-4,4a,5,6-tetrahydrobenzo[h]cinnolin-3[2H]-one] as the molecule, how does the ED50 read?
Answer: Its ED50 is 1.2 µmol/kg.

Question: For CC12CCc3cc(C(N)=O)ccc3C1=NNC(=O)C2 (stereo not drawn) [Example 19, 8-Carboxamido-4a-methyl-4,4a,5,6-tetrahydrobenzo[h]cinnolin-3[2H]-one], which ED50 is on record?
Answer: The ED50 was 1.6 µmol/kg.

same assay, conditions: estimated in the anaesthetised cats following i.v. administration

Question: With Nc1ccc2c(c1)CC1CC(=O)NN=C21 (stereo not drawn) [Example 1, 7-Amino-4,4a-dihydro-[5H]-indeno[1,2-c]pyridazin-3[2H]-one] as the molecule, how does the “Relative Duration” value read?
Answer: The value was “**”.

Question: With CC12CC(=O)NN=C1c1ccc(C(N)=O)cc1C2 (stereo not drawn) [Example 3, 7-Carboxamido-4,4a-dihydro-4a-methyl-[5H]-indeno[1,2-C]-pyridazin-3[2H]-one] as the molecule, how does the “Relative Duration” value read?
Answer: Its value is “*”.

Question: With COc1ccc2c(c1)CC1(C)CC(=O)NN=C21 (stereo not drawn) [Example 7, 4,4a-Dihydro-7-methoxy-4a-methyl-[5H]-indeno[1,2-c]-pyridazin-3[2H]-one] as the molecule, how does the “Relative Duration” value read?
Answer: The value was “**”.

Question: Which “Relative Duration” value does the source give for COc1ccc2c(c1)CCC1(C)CC(=O)NN=C21 (stereo not drawn) [Example 10, 8-Methoxy-4a-methyl-4,4a,5,6-tetrahydrobenzo[h]cinnolin-3[2H]-one] here?
Answer: Its value is “*”.

Question: With CN=C(NC#N)Nc1ccc2c(c1)CCC1CC(=O)NN=C21 (stereo not drawn) [Example 15, 8-(N^2 -Methyl-N^3-cyanoguanidino)-4,4a,5,6-tetrahydrobenzo-[h]cinnolin-3[2H]-one] as the molecule, how does the “Relative Duration” value read?
Answer: The value was “**”.

Question: Which “Relative Duration” value does the source give for NC(=O)c1ccc2c(c1)CCC1CC(=O)NN=C21 (stereo not drawn) [Example 17, 8-Carboxamido-4,4a,5,6-tetrahydrobenzo[h]cinnolin-3[2H]-one] here?
Answer: The value was “**”.

Question: For CC12CCc3cc(C(N)=O)ccc3C1=NNC(=O)C2 (stereo not drawn) [Example 19, 8-Carboxamido-4a-methyl-4,4a,5,6-tetrahydrobenzo[h]cinnolin-3[2H]-one], which “Relative Duration” value is on record?
Answer: The value was “**”.
